Reference: patent US20080305534A1, “Novel Glycerol Dehydrogenase, Gene Therefor, and Method of Utilizing the Same” (priority 2004, published 2008)

B1: RCG: glycerol dehydrogenase derived from Cellulomonas sp. strain KNK0102, amino acid sequence SEQ ID NO: 1 (protein, listed as Cellulomonas sp.)
chain: MSEVPVRTLISPLRYVQARGALTRLGEFVRPIGTKPLLVADDVVWGIVQDTVAVSFQEQDLPRHRTGFGTYATAAEVDRLAREIDELGADVIVGIGGGSTIDAVKAAGHLRGIRWVSVPTVASTDAPCSALSVIYTEDGAFEEYRFFPHNPDLVLVDTGLVANAPVKFLVAGVGDALATWIEARAVAEANASTMAGGLPLVTGTALAQLSWDILWENALPAIDAVKNHLVTPAVEKVVEANTLLSGLGFESGGLAAAHAIHNGLTAAPQTHGLTHGQKVNIGSVTQLVLEGAPTEEIEEFVRFTTRVGLPNTLTEIGLTADDVHDLTRVAEAATAEGETIHAMPFPVRVPELVDALRSIEGFSRRVRAEAGLPEPVKHTAH

Experiments:
RCG = test: Substrate specificity of RCG (oxidation activity with NAD+); type: biochemical, Cellulomonas sp. strain KNK0102
Method: Oxidation activity was determined by adding 2 mM of coenzyme NAD^+, 10 mM of a compound shown in Table 2, and the enzyme solution to a 100 mM phosphate buffer (pH 8.0) to react at 30° C. for 3 min. followed by the measurement of an increase in absorbance at the wavelength of […]. In Table 2, relative activities are summarized, wherein the activity for glycerol is 100.

[1] = Action of RCG: stereoselective reduction of 1-chloro-3-hydroxyacetone; type: biochemical; settings: reduction of 1-chloro-3-hydroxyacetone using NADH as a coenzyme
Method: Furthermore, optical purity of the resulting 3-chloro-1,2-propanediol was determined by high performance liquid chromatography after tosylation.

[2] = Optimum pH of RCG for reduction (activity to reduce dihydroxyacetone); type: biochemical; settings: 10 mM dihydroxyacetone, 0.167 mM NADH, 30° C., pH 4 to pH 9
Method: In order to study the optimum pH of RCG for reduction, the activity to reduce dihydroxyacetone at pH 4 to pH 9 was determined. The enzyme activity was determined by adding 10 mM of the substrate dihydroxyacetone, 0.167 mM of coenzyme NADH, 50 mM of KCl, 50 mM of NH4Cl, and the enzyme solution to a buffer to react at 30° C. for 3 min. followed by the measurement of a decrease in absorbance at […]. As buffers, 100 mM acetic acid buffers (pH4.0 to pH 6.0), 100 mM phosphate buffers (pH 6.0 to pH 8.0), and 100 mM Tris-HCl buffers (pH 8.0 to 9.0) were used to measure the activity at pH 4 to pH 9.

[3] = Optimum pH of RCG for oxidation (activity to oxidize glycerol); type: biochemical; settings: 0.1 M glycerol, 2 mM NAD+, 30° C., pH 6 to pH 11
Method: In order to study the optimum pH of RCG for oxidation, the activity to oxidize glycerol at pH6 to pH 11 was determined. The enzyme activity was determined by adding 0.1 M of the substrate glycerol, 2 mM of coenzyme NAD^+, 50 mM of KCl, 50 mM of NH4Cl, and the enzyme solution to a buffer to react at 30° C. for 3 min. followed by the measurement of an increase in absorbance at […]. As buffers, 100 mM phosphate buffers (pH 6.0 to pH 8.0), 100 mM Tris-HCl buffers (pH 8.0 to 9.0), and 100 mM carbonic acid buffers (pH 9.0 to pH 11.0) were used to measure the activity at pH 6 to pH 11.

[4] = type: biochemical
Method: Herein, the expression “having resistance to 1-chloro-3-hydroxyacetone” means that when 1-chloro-3-hydroxyacetone is added to a solution containing the polypeptide (the enzyme) of the present invention at the final concentration of 0.25% and the mixture is incubated at 30° C. for 20 hrs. followed by the determination of the activity to reduce 1-chloro-3-hydroxyacetone under the conditions described above, the resulting activity is 80% or more, preferably 85% or more, more preferably 90% or more of the activity determined without the pretreatment.
Likewise, the expression “having resistance to 3-chloro-1,2-propanediol” means that when the activity to reduce 1-chloro-3-hydroxyacetone is determined after incubation at 30° C. for 20 hrs. in the presence of 1% of 3-chloro-1,2-propanediol, the resulting activity is 80% or more, preferably 90% or more, more preferably 95% or more of the activity determined without the pretreatment.
In order to study the stability of RCG to 1-chloro-3-hydroxyacetone and to 3-chloro-1,2-propanediol, 1-chloro-3-hydroxyacetone was added at the final concentration of 0.25% to the enzyme solution and incubated at 30° C. followed by the measurement of the activity to reduce 1-chloro-3-hydroxyacetone by using the above enzyme solution. […]

[5] = substrate 10 mM, 2 mM NAD+, 100 mM phosphate buffer pH 8.0, 30° C., 3 min, activity for glycerol is 100

Row | Molecule | Relative activity (RCG; [5]) | further results
1 | OCC(O)COc1ccccc1 (stereo not shown) [3-phenoxy-1,2-propanediol] | 9% | 
2 | 2-butanol | 0% | 
3 | CC(O)CCO (stereo not shown) [1,3-butanediol] | 3% | 
4 | CC(O)C(C)O (stereo not shown) [2,3-butanediol] | 64% | 
5 | CO [methanol] | 0% | 
6 | CCO [ethanol] | 0% | 
7 | CC(O)CCCO (stereo not shown) [1,4-pentanediol] | 0% | 
8 | OCCC(O)CO (stereo not shown) [1,2,4-butanetriol] | 21% | 
9 | CC(C)O [isopropanol] | 0% | 
10 | CCCO [propanol] | 0% | 
11 | CC(O)CO (stereo not shown) [1,2-propanediol] | 142% | 
12 | OCC(O)CO [glycerol] | 100% | 
13 | CSCC(O)CO (stereo not shown) [3-methylthio-1,2-propanediol] | 120% | 
14 | OCCO [ethylene glycol] |  | Relative activity (RCG; pH 8): 8%
15 | 1-amino-2-propanol | 12% | 
16 | OCC(O)CCl (stereo not shown) [3-chloro-1,2-propanediol] | 63% | 
17 | OC(CCl)CCl [1,3-dichloro-2-propanol] | 0% | 
18 | CCCCC(O)CO (stereo not shown) [1,2-hexanediol] | 26% | 
19 | CCC(O)CO (stereo not shown) [1,2-butanediol] | 129% | 
20 | butanol | 0% | 
21 | OCC(O)CBr (stereo not shown) [3-bromo-1,2-propanediol] | 58% | 
22 | CCCC(O)CO (stereo not shown) [1,2-pentanediol] | 153% | 
23 | OCC(O)CS (stereo not shown) [3-mercapto-1,2-propanediol] | 129% | 
24 | OCCCCO [1,4-butanediol] |  | Relative activity (RCG; pH 8): 1%
25 | COCC(O)CO (stereo not shown) [3-methoxy-1,2-propanediol] | 39% | 
26 | OCCCO [1,3-propanediol] | 1% | 
27 | B1 |  | optical purity of (S)-3-chloro-1,2-propanediol formed [1]: 99.3 % e.e.; optimum pH for reduction [2]: 6.0; optimum pH for oxidation [3]: 9.0; stability to 1-chloro-3-hydroxyacetone [4]: very stable; stability to 3-chloro-1,2-propanediol [4]: very stable
